Assay results taken from patent US20250163051A1, “PYRIMIDO AROMATIC RING COMPOUND AND USE THEREOF IN DRUG” (SUNSHINE LAKE PHARMA CO., LTD., priority 2022, published 2025).
Where two headings read alike, the source gives them in different places.

Legend:
CYP3A4 [1] = molecular target: T1, CYP3A4 (Homo sapiens, UniProt P08684); experiment: Inhibition of human liver microsomal CYP3A4; format: in vitro ADME; conditions: human liver microsomes, 10 μM test substance
T1 construct: from tissue; host or cells: human liver microsomes
T1 sequence (P08684 whole entry): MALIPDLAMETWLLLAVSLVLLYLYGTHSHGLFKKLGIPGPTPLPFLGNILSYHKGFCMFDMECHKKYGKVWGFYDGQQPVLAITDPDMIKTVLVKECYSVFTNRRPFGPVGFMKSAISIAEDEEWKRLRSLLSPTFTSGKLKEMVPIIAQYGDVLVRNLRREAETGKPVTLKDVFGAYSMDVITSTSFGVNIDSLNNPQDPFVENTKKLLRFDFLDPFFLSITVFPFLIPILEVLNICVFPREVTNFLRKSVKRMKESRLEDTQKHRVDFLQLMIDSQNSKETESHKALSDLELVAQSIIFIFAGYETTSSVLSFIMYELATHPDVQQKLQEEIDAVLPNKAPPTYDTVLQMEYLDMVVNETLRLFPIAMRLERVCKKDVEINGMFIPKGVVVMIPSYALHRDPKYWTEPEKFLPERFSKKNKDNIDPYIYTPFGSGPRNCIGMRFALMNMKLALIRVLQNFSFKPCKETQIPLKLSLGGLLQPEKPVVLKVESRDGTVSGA
Procedure: Experimental purpose: The inhibitory effects of the test compounds on the major metabolizing enzymes CYP1A2, CYP2C19, CYP2D6 and CYP3A4 in microsomes were evaluated using the human liver microsomal system. Experimental method: The test substance was incubated with a suspension of human liver microsomes containing cytochrome P450 enzymes CYP1A2, CYP2C19, CYP2D6 and CYP3A4 at a concentration of 10 μM in the final incubation system. The known substrates were metabolized by the corresponding single enzymes to generate specific metabolites, and the metabolites were determined by UPLC-MS/MS method. The relative inhibition rate (%) was calculated by the percentage reduction of metabolite production by the test compound and solvent DMSO in the same time period. N is the concentration value of the probe substrate metabolite and it is assumed that the […] with or without inhibitor at 0 min is 0. N+inh is the metabolite concentration in the group with inhibitor, and Nveh is the metabolite concentration in the group without inhibitor. The results of the inhibition test of the compounds of the present invention on human liver microsomal CYP enzymes are shown in Table C.

hTLR8 = molecular target: T2, hTLR8 (Homo sapiens, UniProt Q9NR97); experiment: Agonistic activity on human TLR8 in HEK-Blue hTLR8 cells (QUANTI-Blue); format: cell-based; conditions: 24 h incubation, OD650, read-out: hTLR 8 EC50
T2 construct: expressed in transfected cells; host or cells: HEK-Blue hTLR8 cells
T2 sequence (Q9NR97 27-1041): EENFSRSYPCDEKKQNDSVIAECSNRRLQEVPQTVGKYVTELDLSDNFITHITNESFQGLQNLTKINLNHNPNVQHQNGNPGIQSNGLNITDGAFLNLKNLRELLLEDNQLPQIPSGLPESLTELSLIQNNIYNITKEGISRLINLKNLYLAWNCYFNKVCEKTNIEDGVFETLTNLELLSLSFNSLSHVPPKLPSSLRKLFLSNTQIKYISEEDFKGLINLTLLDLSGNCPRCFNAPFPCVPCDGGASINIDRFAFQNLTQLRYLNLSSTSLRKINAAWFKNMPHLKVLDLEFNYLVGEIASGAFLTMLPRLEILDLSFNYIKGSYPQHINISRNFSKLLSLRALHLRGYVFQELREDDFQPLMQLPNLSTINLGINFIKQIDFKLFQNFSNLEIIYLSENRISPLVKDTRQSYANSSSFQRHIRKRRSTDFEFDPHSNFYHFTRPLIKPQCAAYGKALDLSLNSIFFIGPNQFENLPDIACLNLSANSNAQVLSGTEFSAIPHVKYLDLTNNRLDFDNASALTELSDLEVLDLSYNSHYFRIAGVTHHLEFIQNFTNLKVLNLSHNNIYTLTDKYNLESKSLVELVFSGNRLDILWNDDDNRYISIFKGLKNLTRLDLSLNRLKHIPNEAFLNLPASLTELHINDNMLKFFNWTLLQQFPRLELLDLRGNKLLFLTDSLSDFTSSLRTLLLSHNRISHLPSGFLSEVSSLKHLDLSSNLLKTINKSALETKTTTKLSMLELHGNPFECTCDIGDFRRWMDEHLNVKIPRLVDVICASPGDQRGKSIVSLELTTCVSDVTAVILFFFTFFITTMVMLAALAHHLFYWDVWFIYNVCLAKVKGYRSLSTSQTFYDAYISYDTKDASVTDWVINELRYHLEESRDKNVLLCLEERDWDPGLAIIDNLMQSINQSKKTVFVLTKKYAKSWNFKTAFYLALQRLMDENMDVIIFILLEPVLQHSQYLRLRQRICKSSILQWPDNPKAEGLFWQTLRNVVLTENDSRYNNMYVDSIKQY
Procedure: Purpose: HEK-Blue™ hTLR7 and HEK-Blue™ hTLR8 cells were used to detect the agonist and cytotoxic activities of compounds against hTLR7 and hTLR8.
The experimental steps were as shown below: • 1) Preparation of compound: The compound was prepared into a 20 mM stock solution with DMSO, and then the stock solution was diluted 3-fold in a gradient and added to a 96-well plate, for a total of 10 concentrations, with duplicate wells for each concentration. For negative control wells, 0.5 μL DMSO was added to each well. The final DMSO concentration was 0.5%. • 2) HEK-Blue™ hTLR7 or HEK-Blue™ hTLR8 cells were suspended in culture medium and then seeded into 96-well plates containing compounds at a cell count of 50,000 per well. The compounds and cells were incubated for 24 h at 37° C., 5% Co2. • 3) QUANTI-Blue was used for the detection solution: to a mixture of 1 mL of QB reagent and 1 mL of QB buffer was added 98 mL of sterile water, the mixture was mixed and dissolved, and then placed at room temperature for 10 min. • 4) Activity test of the compound: 20 μL of the culture supernatant in step 2) was added to each well of a 96-well plate containing 180 μL of QUANTI-Blue detection solution. After incubation at 37° C. for 1 h, the absorbance at 650 nm (OD650) was detected using a multifunctional microplate reader Flextation III. • 5) Detection of cell activity: The chemiluminescent signal (RLU) was detected using the multifunctional microplate reader Flextation III according to the instructions of Celltiter-Glo. • 6) Data analysis
Activity of compounds: OD650 values were analyzed using GraphPad Prism software, and the compound dose-effect curves were fitted to calculate the EC50 values of the compounds.

CYP1A2 = experiment: Induction of CYP1A2 in frozen human hepatocytes; format: in vitro ADME; conditions: 72 h induction, concentration and readout not stated
Procedure: (§1) Experimental purpose: Using frozen human hepatocytes as the test system, the induction effects of the test substances on CYP1A2, CYP2B6 and CYP3A4 were evaluated from two aspects of enzyme activity and mRNA level.
(§2) Experimental method: 24 hours after cell plating, induction was started by adding medium containing the test compound (test concentrations were 10, 1, and 0.1 μM), and fresh drug-containing medium was replaced every 24 hours. After 72 hours of induction, the medium was replaced with medium containing CYP1A2, CYP2B6, and CYP3A4 specific substrates for 30 minutes of incubation. 100 μL was taken for treatment, and the labeled metabolites of the substrates were detected to evaluate the enzyme activity level. Finally, the cells were lysed and reverse transcribed, and the expression levels of CYP1A2, CYP2B6 and CYP3A4 genes in the cells were evaluated by real-time quantitative PCR.
(§3) The induction fold of the test compound compared with the blank control and the induction percentage of the test compound compared with the positive control were used as the basis for evaluating the induction potential of the test compound. Among them, the positive control for CYP1A2 is Omeprazole; the positive control for CYP2B6 is Phenobarbital; the positive control for CYP3A4 is Rifampicin.

CYP3A4 [2] = experiment: Induction of CYP3A4 in frozen human hepatocytes; format: in vitro ADME; conditions: 72 h induction, concentration and readout not stated; for CYP3A4 Induction percentage relative to positive control (%): positive control Rifampicin
Procedure: as §1, §2, §3

hERG channel = molecular target: T3, hERG channel (Homo sapiens, UniProt Q12809); experiment: hERG channel current in HEK293 cells, automated patch clamp; format: cell-based; conditions: HEK-293 cells stably expressing hERG, whole-cell patch clamp, 0.3-30 μM
T3 construct: expressed in transfected cells; host or cells: HEK-293 cells stably expressing hERG
T3 sequence (Q12809 whole entry): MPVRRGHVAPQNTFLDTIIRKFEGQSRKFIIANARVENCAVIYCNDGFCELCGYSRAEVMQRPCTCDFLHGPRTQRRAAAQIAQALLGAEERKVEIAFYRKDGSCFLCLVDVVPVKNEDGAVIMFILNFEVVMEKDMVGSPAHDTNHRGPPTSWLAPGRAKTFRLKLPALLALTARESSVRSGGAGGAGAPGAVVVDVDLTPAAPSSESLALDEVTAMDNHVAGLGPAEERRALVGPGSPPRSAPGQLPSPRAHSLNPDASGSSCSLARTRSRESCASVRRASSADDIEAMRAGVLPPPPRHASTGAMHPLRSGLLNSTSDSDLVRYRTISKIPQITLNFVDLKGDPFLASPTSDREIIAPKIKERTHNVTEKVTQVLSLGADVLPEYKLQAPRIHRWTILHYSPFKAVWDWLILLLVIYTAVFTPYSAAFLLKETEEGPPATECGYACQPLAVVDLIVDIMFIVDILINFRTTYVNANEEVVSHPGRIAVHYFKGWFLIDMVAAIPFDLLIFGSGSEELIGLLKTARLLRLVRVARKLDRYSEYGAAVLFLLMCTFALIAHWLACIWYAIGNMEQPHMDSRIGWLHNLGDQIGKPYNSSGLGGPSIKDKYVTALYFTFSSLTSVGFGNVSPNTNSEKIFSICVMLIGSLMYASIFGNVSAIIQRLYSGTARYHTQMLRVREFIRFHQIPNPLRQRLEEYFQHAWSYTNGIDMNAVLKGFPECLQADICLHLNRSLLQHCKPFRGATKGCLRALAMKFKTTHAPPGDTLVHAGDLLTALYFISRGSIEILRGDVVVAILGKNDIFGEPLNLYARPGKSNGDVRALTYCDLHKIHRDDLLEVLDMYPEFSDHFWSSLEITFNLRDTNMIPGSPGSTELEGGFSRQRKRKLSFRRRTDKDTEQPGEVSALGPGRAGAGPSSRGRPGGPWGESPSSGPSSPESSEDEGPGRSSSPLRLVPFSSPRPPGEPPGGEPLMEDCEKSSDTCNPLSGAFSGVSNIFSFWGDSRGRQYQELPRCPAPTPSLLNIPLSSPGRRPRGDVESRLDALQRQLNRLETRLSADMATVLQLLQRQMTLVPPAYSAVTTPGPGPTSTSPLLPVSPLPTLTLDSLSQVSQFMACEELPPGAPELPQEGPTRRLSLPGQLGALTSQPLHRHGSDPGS
Procedure: Test 2: Detection of the Effect of Compounds on hERG Channel Currents Stably Expressed in HEK293 Cells Using Automated Patch Clamp
Experimental purpose: The concentration-effect relationship of the blocking effect of the compounds on hERG channels was determined using the patch clamp technique and HEK-293 cells stably expressing hERG channels to evaluate their risk of inhibitory effect on cardiac hERG potassium channels.
Experimental method: hERG cells were clamped using the patch clamp technique to form a high-resistance seal and then the membrane was broken. The whole-cell recording mode was used to record the hERG current. Each drug concentration was set to be administered twice for at least 5 minutes. The test concentrations were 0.3 μM, 1 μM, 3 μM, 10 μM and 30 μM, and the changes of the test compounds on hERG current were observed.

[3] = probe Midazolam, substrate Midazolam, read-out: Relative inhibition rate (%) CYP3A4 (Midazolam)
[4] = probe Testosterone, substrate Testosterone, read-out: Relative inhibition rate (%) CYP3A4 (Testosterone)

SMILES | inhibition at 10 µM (CYP3A4 [1]; [3]) | inhibition at 10 µM (CYP3A4 [1]; [4]) | EC50 (hTLR8) | CYP1A2 Induction fold relative to blank control (CYP1A2) | CYP3A4 Induction fold relative to blank control (CYP3A4 [2]) | CYP3A4 Induction percentage relative to positive control (%) (CYP3A4 [2]) | IC50 (hERG channel)
C=CCCN(C)Cc1c[nH]c(=O)cc1-c1ccc2c(N[C@@](C)(CO)CCCC)nc(N)nc2c1 [Example 35] | 23.9% | 11.5% | 79 nM | 0.4 | 1.3 | 0.9% | 
CCCC[C@](C)(CO)Nc1nc(N)nc2cc(-c3cc(=O)[nH]cc3CN(C)CCOC)cnc12 [Example 21] | 15.3% | 18% | 34 nM | 0.6 | 1.4 | 1.5% | > 30000 nM
CCCC[C@](C)(CO)Nc1nc(N)nc2cc(-c3cc(=O)n(C)cc3CN3CCCCC3)ccc12 [Example 8] | 9.6% | 6.3% | 42 nM | 0.7 | 0.6 | −1.5% | > 30000 nM
CCCCN(C)Cc1c[nH]c(=O)cc1-c1cnc2c(N[C@@](C)(CO)CCCC)nc(N)nc2c1 [Example 28, (R)-4-(2-Amino-4-((1-hydroxy-2-methylhexan-2-yl)amino)pyrido[3,2-d]pyrimidin-7-yl)-5-((butyl(methyl)amino)methyl)pyridin-2(1H)-one] | 31.1% | 17.9% | 63 nM | 0.8 | 2.0 | 2.0% | > 30000 nM
